In patent US5112515A, “Phenothrin shampoo” (Euroceltique, S.A., priority 1990, dated 1992):

System: Bacteria, moulds and yeasts
Assay: Efficacy of Antimicrobial Preservatives in Pharmaceutical Products (British Pharmacopoeia 1988), overall outcome
Format: cell-based
Details: specification of British Pharmacopoeia 1988
Text: The test procedure conformed with the specifications described in the 1988 British Pharmacopoeia--"Efficacy of Antimicrobial Preservatives in Pharmaceutical Products".
Aliquots of microbial suspensions of Pseudomonas aeruoinosa NC18 8626, Stahylococcus aureus NCTC 10788, Candida albicans NCPF 3179, and Asperoillus niger IMI 149007 were introduced into separate containers of the composition of Example 1 to achieve a final concentration of approximately 1×10^6 cfu/ml. The same volume of inoculum was simultaneously introduced into separate equivalent quantities of 0.1% peptone water to be used as controls. The inoculated product was stored in the dark at 20°-25° C.
1 ml aliquots of the inoculated product were removed at 0, 6, 24 and 48 hours, 7, 14 and 28 days. Each was added to 9 ml of 0.1% peptone water containing the following as preservative inactivating agents:
A topical preparation is considered to be effectively preserved if the following criteria are met:
Bacteria--the number of organisms recovered per ml is reduced by a factor of not less than 10^3 within 48 hours of challenge and no organism is recovered from 1 ml at 7 days and thereafter;
Moulds and Yeasts--the number of organisms recovered per ml is reduced by a factor of not less than 10^2 within 14 days of challenge and there is no increase thereafter.

With `O=[N+]([O-])C(Br)(CO)CO` [bronopol, 2-bromo-2-nitropropane-1,3,-diol] the “Antimicrobial protection / antimicrobial properties of the shampoo” value was “good antimicrobial protection”.
